Results on four compounds are retold here after patent US20060292657A1, “Phex substrates and methods using same” (priority 2003, published 2006).

Square brackets hold non-standard residues; d marks the D form. Primed or numbered codes have the meaning given here. Ends that are not written are not given here. Peptide text beside a SMILES is read from it. * marks the point of attachment. EDDnp = O=[N+]([O-])c1ccc(NCCN*)c([N+](=O)[O-])c1; Dnp = O=[N+]([O-])c1ccc(*)c([N+](=O)[O-])c1; Dnp′ = 2,4-dinitrophenyl; 2Abz = Nc1ccccc1C(=O)O

Type in all cases: biochemical
Assay [1] addresses T1, secPHEX (Homo sapiens, UniProt P78562).
T1 construct: pure soluble form of PHEX (secPHEX); made in house
T1 sequence (P78562 46-749 limits assumed): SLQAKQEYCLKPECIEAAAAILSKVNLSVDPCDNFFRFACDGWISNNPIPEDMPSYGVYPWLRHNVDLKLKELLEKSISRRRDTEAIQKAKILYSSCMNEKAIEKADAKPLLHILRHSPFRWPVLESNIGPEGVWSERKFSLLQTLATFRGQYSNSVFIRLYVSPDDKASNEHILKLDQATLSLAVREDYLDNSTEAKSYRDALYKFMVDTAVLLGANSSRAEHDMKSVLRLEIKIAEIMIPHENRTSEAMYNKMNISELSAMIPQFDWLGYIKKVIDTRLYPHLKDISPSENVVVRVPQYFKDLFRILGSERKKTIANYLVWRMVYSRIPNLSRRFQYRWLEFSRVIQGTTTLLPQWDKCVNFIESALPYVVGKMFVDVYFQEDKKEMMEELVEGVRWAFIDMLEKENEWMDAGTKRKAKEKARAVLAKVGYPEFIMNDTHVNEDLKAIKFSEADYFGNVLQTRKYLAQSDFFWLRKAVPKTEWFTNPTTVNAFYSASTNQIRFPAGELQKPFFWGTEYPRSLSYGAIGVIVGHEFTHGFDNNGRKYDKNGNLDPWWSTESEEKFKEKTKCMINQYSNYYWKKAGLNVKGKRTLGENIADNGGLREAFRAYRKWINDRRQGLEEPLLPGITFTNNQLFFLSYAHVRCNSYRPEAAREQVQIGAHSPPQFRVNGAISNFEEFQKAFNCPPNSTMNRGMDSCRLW
The assay is described as follows: IC50 determination of PHEX inhibitor, fluorigenic substrate assay. As to the method:
secPHEX enzymatic activity was determined using a fluorigenic substrate where increase of fluorescence was proportional to substrate conversion to products. […] Of these, S3 was the most preferred substrate. S3 was synthesized as described above.
The reaction was carried out in a total volume of 200 μl constituted of buffer (50 mM Mes(NaOH) pH 6.5, 150 mM NaCl) containing various concentrations of the tested PHEX inhibitor (3×10^−5 to 1×10^−11 M) and 100 ng of purified secPHEX. The enzymatic reaction was initiated with the addition of the fluorigenic substrate at a final concentration of 10 μM. The fluorescent reaction product was excited at 320 nm with fluoresce emission read at 420 nm every four minutes over a one-hour period using 96-well plate reader (Perkin-Elmer, HTS-7000™). The initial reaction rate was calculated from the acquired fluorescence-time data as a slope using Microsoft Excell™. Further examples can be found in the co-pending PCT application number PCT/CA03/01893.
IC50 was determined with a plot of the initial rates computed above as a function of inhibitor concentration using the one site competition equation of GraphPad Prism™ version 3.03 (GraphPad™ Software Inc.).

The target in assay [2] is T1, secPHEX. The assay is described as follows: Determination of secPHEX activity and concentration in serum with fluorigenic substrate. As to conditions: activity determination in serum. How it is done: FIG. 6 graphically illustrates the secPHEX enzymatic activity on a fluorigenic substrate of the present invention in rat serum. The observed fluorescence increase was proportional to the reaction product formation. The reaction was carried out in a total volume of 200 μl constituted of buffer: 50 mM Hepes (NaOH) pH 7.4, 150 mM NaCl, 5*10−6 M captopril (ACE inhibitor), containing 10 μl of rat serum in which purified sPHEX was spiked. The enzymatic reaction was initiated by the addition of the fluorigenic substrate (Abz-GFSDYK-Dnp) (SEQ ID NO:3) at a final concentration of 20 μM. The fluorescent reaction product was excited at 320 nm and fluorescence recorded at 420 nm every four minutes over a one-hour period in a 96-well plate reader (Perkin-Elmer, HTS-7000). The initial enzymatic speed rate of the reaction was calculated for each condition. The reaction was carried out in presence of 5 mM EDTA to assess whether the assay is specific to metallopeptidase. Measurements were done in duplicates.
secPHEX enzymatic activity was determined using a fluorigenic substrate where increase of fluorescence was proportional to substrate conversion to products. […] Of these, S3 was the most preferred substrate. […]
The reaction was carried out in a total volume of 200 μl constituted of buffer (50 mM Mes(NaOH) pH 6.5, 150 mM NaCl, 5×10^−6 M captopril (ACE inhibitor)) and serum (preferably between 2 to 50 μl). […] The fluorescent reaction product is excited at 320 nm with fluoresce emission read at 420 nm every four minutes over a one-hour period using 96-well plate reader (Perikin-Elmer, HTS-7000™). The initial reaction rate was calculated from the acquired fluorescence-time data as a slope using Microsoft Excell™. PHEX Enzymatic activity (Vi) was calculated by subtracting to the initial rate of fluorescence (Vitot) with the same measured in presence of EDTA 5 mM (ViEDTA). […]
The actual secPHEX concentration was determined from a calibration curve (Vi Vs secPHEX concentration) obtained by serial dilution of secPHEX in serum or other biological media as required.

For assay [3], the target named is T1, secPHEX. As to the kind of experiment: Kinetic parameters for hydrolysis of internally quenched fluorogenic peptides by secPHEX. The conditions noted are these: for hydrolysis by secPHEX (result in words): 37° C., 10 mM Bis-Tris buffer pH 5.5, 150 mM NaCl. How it is done: The human recombinant secPHEX was obtained following the procedure previously described (17, WO 00/50580). Purified secPHEX concentration was determined using the Bradford method (DC protein assay kit; Bio-Rad, Mississauga, ON, Canada). Membrane-bound recombinant human PHEX was expressed in LLC-PK1 cells (17, (WO 00/50580)) and membranes were prepared essentially as described by Guo et al. (34). Briefly, transfected cells resuspended in lysis buffer (150 mM NaCl, 20 mM Tris.HCl, pH 7.6) were disrupted by sonication. Cell debris were removed by centrifugation at 300 g for 15 min at 4 °C. Membranes were collected by centrifugation at 30,000 g for 50 min and solubilized for 2h with 1% n-dodecyl-β-D-maltoside in lysis buffer. Insoluble material was pelleted by centrifugation at 10,000 g for 15 min and protein concentrations of the supernatant determined using the Bradford method described above. PHEX amounts were evaluated by immunoblotting as described previously (17). NEP expression and purification were performed as described previously (36).
The hydrolysis of the IQFPs, at 37° C., in 10 mM Bit-Tris buffer pH 5.5 (0.35 to 1.0 ml final volume) containing 150 mM NaCl, was continuously followed measuring the fluorescence at γem=420 nm and γex=320 nm in a Hitachi F-2000™ spectrofluorometer. The cuvefte containing the buffer and the substrate was placed in a thermostatically controlled cell compartment for 5 min before the addition of the enzyme and the increase in fluorescence with time was continuously recorded for 5-10 min. The enzyme concentration for initial rate determination was chosen at a level intended to hydrolyze less than 5% of the substrate present. […] The kinetic parameters Km and kcat were calculated by the non-linear regression data analysis Grafit program (42). The kcat/Km values were calculated as the ratio of these two determined parameters. The apparent second order rate constant kcat/Km (*kIt/Km) was determined under pseudo first-order conditions, where [S]<<Km. […]

Take “Abz-GFRDWK-Dnp ([2Abz]GFRDWK-{Dnp′}) [S1]”: the “suitability as secPHEX substrate” value with secPHEX [1] and with secPHEX [2] was “good secPHEX substrate” throughout.

Take `NC(=O)[C@H](CCCCNc1ccc([N+](=O)[O-])cc1[N+](=O)[O-])NC(=O)[C@H](Cc1ccc(O)cc1)NC(=O)[C@H](CCC(=O)O)NC(=O)[C@H](CO)NC(=O)[C@H](Cc1ccccc1)NC(=O)CNC(=O)c1ccccc1N` [V-Abz-GFSEYK(Dnp)-NH2, Abz-GFSEYK(Dnp)-NH2] (H-[2Abz]GFSEYK(Dnp)-NH2): the “hydrolysis by secPHEX (result in words)” value was “Resistant” on secPHEX [3] and “resistant to hydrolysis” at secPHEX [3] (listed as Abz-GFSEYK(Dnp)-NH2).

As to `NC(=O)[C@H](CCCCNc1ccc([N+](=O)[O-])cc1[N+](=O)[O-])NC(=O)[C@H](Cc1ccc(O)cc1)NC(=O)[C@H](CC(=O)O)NC(=O)[C@H](CO)NC(=O)[C@H](Cc1ccccc1)NC(=O)CNC(=O)c1ccccc1N` [II-Abz-GFS↓DYK(Dnp)-NH2, Abz-GFSDYK(Dnp)-NH2] (H-[2Abz]GFSDYK(Dnp)-NH2), at secPHEX [3] (COOH-terminus amidated analogue), the “decrease in catalytic efficiency compared with Abz-GFSDYK(Dnp)-OH” value was found to be 6 fold.

For the compound `CC(C)C[C@H](NC(=O)[C@H](Cc1c[nH]cn1)NC(=O)[C@H](CC(=O)O)NC(=O)c1ccccc1N)C(=O)N[C@@H](CO)C(=O)N[C@@H](CC(=O)O)C(=O)N[C@H](C(=O)N[C@@H](CO)C(=O)N[C@H](C(=O)N[C@@H](CCC(N)=O)C(=O)NCCNc1ccc([N+](=O)[O-])cc1[N+](=O)[O-])[C@@H](C)O)[C@@H](C)O` [I-Abz-D125-HLS↓DTSTQ-EDDnp, Abz-DHLSDTSTQ-edDnp] (H-[2Abz]DHLSDTSTQ-EDDnp), the “suitability as secPHEX substrate” value on secPHEX [1] and at secPHEX [2] was “good secPHEX substrate” throughout.
